US20240358692A1, “TREATMENT OF SCLERODERMA” (Aisa Pharma, Inc., priority 2023, published 2024)

How the values were obtained:
participants with SSc-RP [1] = experiment: Frequency of weekly RP attacks (all attacks; primary endpoint), patient diary; assay type: in vivo, human; details: for Weekly RP Attacks (All Attacks) Percent Change from Baseline, Mean / Weekly RP Attacks (All Attacks) Percent Change from Baseline, Median / Weekly RP Attacks (All Attacks), Mean / Weekly RP Attacks (All Attacks), Median / Weekly RP Attacks (All Attacks) Change from Baseline, Mean / Weekly RP Attacks (All Attacks) Change from Baseline, Median: ITT Part A; for reduction in weekly frequency of attacks: typical Raynaud attacks
Source text: Percent change from baseline evaluation for frequency of weekly RP attacks were or will be used as the primary efficacy variable. The sponsor-developed participant-informed diary will be used to record data. Frequency of weekly RP attacks is defined as the total number of RP attacks divided by the number of days with available diary data within the last 7 days of each dosing period then multiplied by 7. Total number of RP attacks during the last 7 days of screening period divided by the number of days with available data then multiplied by 7 will be used as baseline for the analysis of all periods. The variable will be calculated as follows: […]
Percent change from baseline evaluation for frequency of weekly RP attacks was and will be the primary efficacy endpoint. Frequency of weekly RP attacks is defined as the total number of RP attacks divided by the number of days with available diary data within the last 7 days of each dosing period then multiplied by 7. Total number of RP attacks during the last 7 days of screening period divided by the number of days with available data then multiplied by 7 will be used as baseline for the analysis of all periods.

participants with SSc-RP [2] = experiment: SHAQ - Alternative Disability Index; assay type: in vivo, human; design: key to SHAQ Alternative Disability Index, In-Clinic Visit (Day 12), Median: mean of 8 category scores, 0 = no difficulty to 3 = unable to do; details: Part A
Source text: The SHAQ is used to calculate a Disability Index to assess the participant qualify of life. The eight categories assessed by the Disability Index are 1) dressing and grooming, 2) arising, 3) eating, 4) walking, 5) hygiene, 6) reach, 7) grip, and 8) common daily activities. For each of these categories, patients report the amount of difficulty they have in performing two or three specific activities.
There are four possible responses for the Disability Index questions: • Without any difficulty=0 • With some difficulty=1 • With much difficulty=2 • Unable to do=3 • The highest score reported by the patient for any component question of the eight categories determines the score for that category. • If a component question is left blank or the response is too ambiguous to assign a score, then the score for that category is determined by the remaining completed question(s). • If all component questions are blank or if more than one answer is given, then follow up with the respondent is required. • If the respondent's mark is between the response columns, then move it to the closest one. If it's directly between the two, move it to the higher one.
The aid and device variables are not used to calculate the alternative disability index; it is calculated by adding the scores for each of the categories and dividing by the number of categories answered. This gives a score in the 0 to 3 range.

[3] = Pooled Cilnidipine, Baseline RCS stratum 1 (upper half of table)
[4] = Pooled Cilnidipine, Excluding Outliers, Baseline RCS stratum 1 (upper half of table)
[5] = cilnidipine 10 mg daily, n=1, excluding outliers, last 7 days of dosing
[6] = cilnidipine 10 mg daily, n=1, last 7 days of dosing
[7] = cilnidipine 20 mg daily, n=2, excluding outliers, last 7 days of dosing
[8] = cilnidipine 20 mg daily, n=2, last 7 days of dosing
[9] = Any Cilnidipine (N = 17), Day 12, PP Population
[10] = Cilnidipine 10 mg, SSc patients, PP

## COCCOC(=O)C1=C(C)NC(C)=C(C(=O)OC/C=C/c2ccccc2)C1c1cccc([N+](=O)[O-])c1 (stereo not drawn) [Cilnidipine]
Participants with SSc-RP [1]; [3]
  Weekly RP Attacks (All Attacks) Percent Change from Baseline, Mean: −39.85%
  Weekly RP Attacks (All Attacks) Percent Change from Baseline, Median: −45.00%
  Weekly RP Attacks (All Attacks), Mean: 13.00
  Weekly RP Attacks (All Attacks), Median: 11.00
Participants with SSc-RP [1]; [4]
  Weekly RP Attacks (All Attacks) Change from Baseline, Mean: −7.44
  Weekly RP Attacks (All Attacks) Change from Baseline, Median: −9.00
  Weekly RP Attacks (All Attacks) Percent Change from Baseline, Mean: −39.85%
  Weekly RP Attacks (All Attacks) Percent Change from Baseline, Median: −45.00%
  Weekly RP Attacks (All Attacks), Mean: 13.00
  Weekly RP Attacks (All Attacks), Median: 11.00
Participants with SSc-RP [1]; [5]
  Weekly RP Attacks (All Attacks) Change from Baseline, Mean: −9.00
  Weekly RP Attacks (All Attacks) Change from Baseline, Median: −9.00
  Weekly RP Attacks (All Attacks), Mean: 23.00
  Weekly RP Attacks (All Attacks), Median: 23.00
Participants with SSc-RP [1]; [6]
  Weekly RP Attacks (All Attacks) Change from Baseline, Mean: −9.00
  Weekly RP Attacks (All Attacks) Change from Baseline, Median: −9.00
  Weekly RP Attacks (All Attacks), Mean: 23.00
  Weekly RP Attacks (All Attacks), Median: 23.00
Participants with SSc-RP [1]; [7]
  Weekly RP Attacks (All Attacks) Change from Baseline, Mean: −6.67
  Weekly RP Attacks (All Attacks) Change from Baseline, Median: −6.67
  Weekly RP Attacks (All Attacks) Percent Change from Baseline, Mean: −45.71%
  Weekly RP Attacks (All Attacks) Percent Change from Baseline, Median: −45.71%
  Weekly RP Attacks (All Attacks), Mean: 8.00
  Weekly RP Attacks (All Attacks), Median: 8.00
Participants with SSc-RP [1]; [8]
  Weekly RP Attacks (All Attacks), Mean: 8.00
  Weekly RP Attacks (All Attacks), Median: 8.00
Participants with SSc-RP [1]; cilnidipine 10 mg (dose response, n=3)
  reduction in weekly frequency of attacks: 28%
Participants with SSc-RP [1]; cilnidipine 20 mg (dose response, n=3)
  reduction in weekly frequency of attacks: 46%
Participants with SSc-RP [2]; [9]
  SHAQ Alternative Disability Index, Change from Baseline, Mean (SD): −0.006 (0.1912)
  SHAQ Alternative Disability Index, Change from Baseline, Median: 0.000
  SHAQ Alternative Disability Index, In-Clinic Visit (Day 12), Mean (SD): 0.450 (0.4926)
  SHAQ Alternative Disability Index, In-Clinic Visit (Day 12), Median: 0.250
  SHAQ Alternative Disability Index, Percent Change from Baseline, Mean (SD): 21.32 (100.525) %
  SHAQ Alternative Disability Index, Percent Change from Baseline, Median: −10.00%
Participants with SSc-RP [2]; [10]
  SHAQ Alternative Disability Index, Change from Baseline, Max: 0.38
  SHAQ Alternative Disability Index, Change from Baseline, Mean: 0.063
  SHAQ Alternative Disability Index, Change from Baseline, Median: 0.000
  SHAQ Alternative Disability Index, Change from Baseline, Min: −0.13,
  SHAQ Alternative Disability Index, Change from Baseline, Q1: −0.063,
  SHAQ Alternative Disability Index, Change from Baseline, Q3: 0.188
  SHAQ Alternative Disability Index, Day 12, Max: 1.25
  SHAQ Alternative Disability Index, Day 12, Mean: 0.563
  SHAQ Alternative Disability Index, Day 12, Median: 0.500
  SHAQ Alternative Disability Index, Day 12, Min: 0.00,
  SHAQ Alternative Disability Index, Day 12, Q1: 0.000,
